≈ marks a conversion by molar mass, not a printed value. Where two headings read alike, the source gives them in different places. Non-standard residues stand in square brackets, D forms with d. Residues, ends and D or L forms follow the SMILES beside them.
Legend:
[1] = CD spectra of pepD in liposomes; type: physicochemical; details: CD in water, DOPC, POPE/POPG (1:1, w/w) liposomes
Experimental: 1,2-dioleoyl-sn-glycero-3-phosphocholine (DOPC) is commonly used to mimic mammalian cell membrane. 1-Palmitoyl-2-oleoyl-sn-glycero-3-phosphoglycerol (POPG) has a negatively charged head group. The mixture of 1-palmitoyl-2-oleoyl-sn-glycero-3-phosphoethanolamine (POPE) and POPG is commonly used to mimic the negatively charged membrane surface of bacteria.
For the CD spectra of pepD in lipids, two kinds of liposomes DOPC and POPE/POPG (1:1, w/w) were prepared. DOPC (10 mg/mL) and POPE/POPG (14 mg/mL) were dissolved in chloroform/methanol (9/1, v/v) in a glass tube individually. The solvents were evaporated under the purge of nitrogen gas to form a thin lipid film on the tube surface. The tube was placed in vacuo overnight to completely remove the organic solvent. To rehydrate the lipid film, 400 μL deionized water was added and mixed in an Intelli-Mixer (rocker mode, 60 rpm) for one hour. Then, the water/lipid mixture was frozen in liquid nitrogen and thawed at 45° C. for 5 min. After five freeze-thaw cycles, liposomes were prepared by extruding the mixture through a polycarbonate filter (with 200-nm pore size) using an Avanti Mini-Extruder (Avanti Polar Lipids, USA). Purified pepD was dissolved in water (64 μg/mL) and mixed with an equal volume of the liposome suspension for CD measurement.

[2] = test system: Xanthomonas oryzae pv. oryzae strain Xoo28; details: Xoo Xoo28; Table 7
[3] = test system: Pseudomonas syringae pv. tomato strain DC3000
[4] = test system: Pseudomonas syringae pv. syringae strain B728a; details: Pss B728a; Table 7
[5] = test system: Escherichia coli strain DH5a; details: DH5a, 24 h
[6] = test system: Agrobacterium tumefaciens strain Atu C58C1; details: Atu C58C1; Table 7
[7] = test system: Pectobacterium carotovorum subsp. carotovorum; type: cell-based
Method in brief: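 Bacteria were grown 4–6 h, set to OD600=0.08 in rich or minimal medium, then diluted 100-fold. This inoculum was mixed 1:1 with 2-fold serial peptide dilutions and incubated static at optimal temperature. MIC was read from growth and MBC taken as the lowest concentration giving no colonies.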

[8] = test system: Xanthomonas oryzae pv. oryzae strain Xoo28; details: Xoo Xoo28; rich medium, 24 h, purified peptides
[9] = test system: Xanthomonas campestris pv. campestris strain Xcc17; assay: IC50 of bacterial growth (OD600) in rich liquid medium; type: cell-based; details: Xcc Xcc17, 24 h, purified peptides
Experimental: (§1) To measure the antimicrobial activity, single colony grown on an optimal rich agar medium for each bacterium was picked and grew in 3 mL of the same rich liquid medium for 4 to 6 h. The bacterial culture was then diluted in the same medium to give a final concentration of OD600=0.08 and then further diluted […] in the same medium. In each well of a 96-well polystyrene plate, 90 μL of the diluted culture was mixed with 10 μL of the peptide to give a peptide concentration of 0, 2, 10, and 20 μg/mL (final cell concentration is 5×10^5 CFU/mL). OD600 was measured after incubation at an optimal temperature for 24 h. IC50 was determined as the lowest peptide concentration inhibiting 50% of bacterial growth.

[10] = test system: Xanthomonas euvesicatoria strain Xvt28; assay: as above; type: cell-based; details: Xev Xvt28, 24 h, purified peptides
Experimental: as §1

Eco DH5α = assay: MIC and MBC by serial dilution in 96-well plate; type: cell-based, Escherichia coli; details: Table 7
Experimental: (§2) The effect of peptide length on the antimicrobial activity was investigated by deciding the minimal inhibitory concentration (MIC) and minimal bactericidal concentration (MBC) for each peptide against the pathogen with the media and growth conditions of phytopathogenic bacteria and E. coli as described in Table 1. Single bacterial colony grown on an optimal rich agar medium was picked, and each grew in 3 mL of the same rich liquid medium for 4 to 6 h.
(§3) For experiments carried out in the rich medium, the bacterial broth culture was then diluted in the same medium to give a final concentration of OD600=0.08, and then further diluted 100 folds in the same medium.
(§4) For experiments carried out in the minimal medium, the bacterial cells were collected from the bacterial liquid culture by centrifugation, re-suspended in an optimal minimal medium to give a final concentration of OD600=0.08, and then further diluted 100 folds in the same minimal medium.
(§5) Fifty microliters of serially diluted peptides (2-fold the final concentration) were added in a 96-well polystyrene plate with 50 μL of the bacterial culture. The final concentrations of peptides were 0, 2, 4, 8, 16 and 32 μg/mL. The plates were incubated at an optimal temperature without shaking.
(§6) MBC was determined as the lowest peptide concentration at which no colonies formed.

[11] = test system: Xanthomonas campestris pv. campestris strain Xcc17; assay: MIC and MBC by serial dilution in 96-well plate; type: cell-based; details: Xcc Xcc17; Table 7
Experimental: as §2, §3, §4, §5, §6

[12] = test system: Xanthomonas euvesicatoria strain Xvt28; assay: MIC and MBC by serial dilution in 96-well plate; type: cell-based; details: Xev Xvt28; Table 7
Experimental: as §2, §3, §4, §5, §6

[13] = test system: Candida albicans 12-99 (fluconazole-resistant)
[14] = test system: Candida albicans 89 (echinocandin-resistant)
[15] = test system: Cryptococcus gattii WM276
[16] = test system: Staphylococcus aureus BCRC 10777
[17] = test system: Cryptococcus neoformans T1 (fluconazole-resistant)
[18] = test system: Acinetobacter baumannii ATCC 17978
[19] = test system: Salmonella typhimurium NCHU 15721; details: murium NCHU 15721
[20] = test system: Cryptococcus neoformans H99
[21] = test system: Staphylococcus epidermidis ATCC 14990
[22] = test system: Cryptococcus deuterogattii R265
[23] = test system: Klebsiella pneumonia NTUH-K2044
red blood cells = type: cell-based, rat
Experimental: Further, the hemolytic activity of the antimicrobial peptides was tested. EDTA-treated rat whole blood was centrifuged at 840×g for 3 minutes at 4° C. to separate blood cells and plasma. The plasma was removed, and the blood cells were washed three times with PBS having the same volume as the original blood volume by gently turning the centrifuge tube upside down. After washing, ten microliters of blood cells were diluted in PBS 2000 times to count the cells. Finally, red blood cells were diluted to 5×10^8 cells/mL in PBS. Peptides were dissolved in water and filtered through a 0.2-μm filter to make a stock solution. The peptide concentration was quantitated by UV280. The peptide solution was diluted in PBS to different concentrations (5 times of tested concentration). Twenty microliters of peptide in PBS were mixed with 80 μL of red blood cell solution in a 96-well plate (V-bottom). […] The concentration of heme contained in each well was measured by UV405 using Infinite M1000 pro (Tecan). The hemolytic activity was calculated using the following formula: Hemolytic activity=[(F−F0)/(Ft−F0)]×100% • F is UV405 of the peptide-treated sample; • F0 is UV405 of sample without peptide (negative control); • Ft is UV405 of the Triton-treated sample (positive control).

[24] = test system: Pseudomonas aeruginosa ATCC 9027; details: ATCC 9027
[25] = test system: Cryptococcus neoformans 89-610 (fluconazole-resistant)

In the case of Ac-WKKLKKLLKKLKKLLKKL-NH2 [pepD], the lipid selectivity [1] is reported as “only interacts with negatively charged lipid”, the MBC [2] is reported as 4.0 µg/mL and the MIC [2] is reported as 4.0 µg/mL. For the same molecule, the MIC (Candida albicans SC5314; SC5314, 48 h) was 16.0 µg/mL, the MBC [3] was 24.0 µg/mL and the MIC [3] was 16.0 µg/mL. For the same molecule, the MBC [4] was “— (“—” indicates no antimicrobial activity being detected at the highest peptide concentration (32 μg/mL) tested in this study.)”, the MIC [4] was 32.0 µg/mL and the IC50 [5] was 10.0 µg/mL. The MBC [6] was “— (“—” indicates no antimicrobial activity being detected at the highest peptide concentration (32 μg/mL) tested in this study.)”, the MIC [7] was 32.0 µg/mL and the MBC ([7]; Pcc, Table 7) was “— (“—” indicates no antimicrobial activity being detected at the highest peptide concentration (32 μg/mL) tested in this study.)”. The IC50 [8] was 8.0 µg/mL, the IC50 [9] was 4.0 µg/mL and the IC50 [10] was 4.0 µg/mL. The MBC (Eco DH5α) was 10.0 µg/mL, the MIC (Eco DH5α) was 10.0 µg/mL and the MBC [11] was 6.7 µg/mL. It also gave an MIC [11] of 2.7 µg/mL, an MBC [12] of 18.7 µg/mL and an MIC [12] of 5.3 µg/mL.
For CC(=O)N[C@@H](Cc1c[nH]c2ccccc12)C(=O)N[C@H](CCCCN)C(=O)N[C@H](CCCCN)C(=O)N[C@H](CC(C)C)C(=O)N[C@H](CCCCN)C(=O)N[C@H](CCCCN)C(=O)N[C@H](CC(C)C)C(=O)N[C@H](CC(C)C)C(=O)N[C@H](CCCCN)C(=O)N[C@H](CCCCN)C(=O)N[C@H](CC(C)C)C(=O)N[C@H](CCCCN)C(=O)N[C@H](CCCCN)C(=O)N[C@H](CC(C)C)C(N)=O [pepdD2, Ac-Wkklkkllkklkkl-NH2] (Ac-W[dK][dK][dL][dK][dK][dL][dL][dK][dK][dL][dK][dK][dL]-NH2), the MFC [13] was 32 µg/mL (≈ 17.4 µM), the MIC [13] was 16 µg/mL (≈ 8.71 µM) and the MFC [14] was 32 µg/mL (≈ 17.4 µM). For the same molecule, the MIC [14] was 32 µg/mL (≈ 17.4 µM), the MFC [15] was 2 µg/mL (≈ 1.09 µM) and the MIC [15] was 2 µg/mL (≈ 1.09 µM). For the same molecule, the MBC [16] was 32 µg/mL (≈ 17.4 µM), the MIC [16] was 32 µg/mL (≈ 17.4 µM) and the MIC ([17]; Cryptococcus neoformans T1 (fluconazole-resistant)) was 2 µg/mL (≈ 1.09 µM). For the same molecule, the MFC ([17]; T1 (fluconazole-resistant)) was 2 µg/mL (≈ 1.09 µM), the MBC [18] was 8 µg/mL (≈ 4.36 µM) and the MBC [19] was 16 µg/mL (≈ 8.71 µM). The MIC [19] was 16 µg/mL (≈ 8.71 µM), the MIC ([20]; Cryptococcus neoformans H99) was 4 µg/mL (≈ 2.18 µM) and the MFC ([20]; H99) was 4 µg/mL (≈ 2.18 µM). For the same molecule, the MBC [21] was 32 µg/mL (≈ 17.4 µM), the MIC [21] was 16 µg/mL (≈ 8.71 µM) and the MFC [22] was 2 µg/mL (≈ 1.09 µM). It also gave an MIC ([22]; Cryptococcus deuterogattii R265) of 2 µg/mL (≈ 1.09 µM), an MFC (Candida albicans SC5314; SC5314) of 32 µg/mL (≈ 17.4 µM) and an MIC (Candida albicans SC5314; SC5314) of 32 µg/mL (≈ 17.4 µM). For the same molecule, the MBC [23] was 32 µg/mL (≈ 17.4 µM), the MIC [23] was 32 µg/mL (≈ 17.4 µM) and the hemolytic activity (red blood cells) was “very little or non-hemolytic activity”. For the same molecule, the MBC [24] was 4 µg/mL (≈ 2.18 µM), the MIC [24] was 4 µg/mL (≈ 2.18 µM) and the MFC ([25]; 89-610 (fluconazole-resistant)) was 2 µg/mL (≈ 1.09 µM). The MIC ([25]; Cryptococcus neoformans 89-610 (fluconazole-resistant)) was 2 µg/mL (≈ 1.09 µM).

Reference: patent US20240101602A1, “ANTIMICROBIAL PEPTIDES AND METHOD OF PREVENTING OR TREATING INFECTION BY USING THE SAME” (priority 2020, published 2024)
